Test results published in ChEMBL document CHEMBL1201862, “PubChem BioAssay data set” (2004).
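How tested: cells in 96-well plates exposed to compound for 48 hours at five concentrations. At the GI50, growth is halved.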 Activity calls are given as the source filed them. Rule as the data show it: active = GI50 up to about 1.1 µM and inactive = higher.

Columns and labels:
Experiment in all cases: NCI-60 cell line screen, 48 h
[1] = tested on: DLD-1
[2] = tested on: DMS-273
[3] = tested on: KM-20L2
[4] = tested on: LXFL 529
[5] = tested on: M19-MEL
[6] = tested on: RXF 631
[7] = tested on: XF498
[8] = tested on: HOP-18
[9] = tested on: SNB-78

Row | SMILES | GI50 [1] | GI50 [2] | GI50 [3] | GI50 [4] | GI50 [5] | GI50 [6] | GI50 [7] | GI50 [8] | GI50 [9]
1 | Oc1ccc(Cn2c(-c3ccc(O)cc3)nc3ccccc32)cc1 | > 100 µM (inactive) | > 100 µM (inactive) | > 100 µM (inactive) | > 100 µM (inactive) | > 100 µM (inactive) | > 100 µM (inactive) | > 100 µM (inactive) | – | –
2 | O=C1C=CC2OC(c3ccccc3)C(O)C2O1 (configuration not stated) | 3.89 µM (inactive) | 4.91 µM (inactive) | 5.98 µM (inactive) | – | 12 µM (inactive) | – | 2.8 µM (inactive) | 0.984 µM (active) | 7.08 µM (inactive)
3 | COC(=O)[C@@H](O)[C@](O)(CCC(C)C)C(=O)O[C@@H]1C(OC)=C[C@]23CCCN2CCc2cc4c(cc2[C@H]13)OCO4 | 1 µM (active) | 0.585 µM (active) | 1.5 µM (inactive) | – | 1.18 µM (inactive) | – | – | 2.46 µM (inactive) | 2.59 µM (inactive)
4 | CCN(CC)CCNC(=O)c1cccc2cc3ccccc3nc12 | 3.57 µM (inactive) | 3.95 µM (inactive) | – | – | 4.89 µM (inactive) | 4.6 µM (inactive) | – | 15.8 µM (inactive) | 7.69 µM (inactive)
5 | Cc1n(CC(C)C)c2c([n+]1C)C(=O)c1ccccc1C2=O | 0.0813 µM (active) | < 0.0484 µM (active) | 0.0383 µM (active) | < 0.0375 µM (active) | 0.0719 µM (active) | – | 0.252 µM (active) | 0.565 µM (active) | 0.403 µM (active)
6 | CN1CCc2c1nc(-c1ccc([N+](=O)[O-])cc1)c1c2N(C)CC1 | 46.3 µM (inactive) | – | > 100 µM (inactive) | > 100 µM (inactive) | > 100 µM (inactive) | > 100 µM (inactive) | > 100 µM (inactive) | 0.16 µM (active) | > 100 µM (inactive)
7 | O=C(Nc1ccc([N+](=O)[O-])cc1)C1C(=O)C(=O)N(c2ccc([N+](=O)[O-])cc2)C1=O (configuration not stated) | > 100 µM (inactive) | 11.6 µM (inactive) | 97.3 µM (inactive) | 17.7 µM (inactive) | – | > 100 µM (inactive) | – | > 100 µM (inactive) | > 100 µM (inactive)
8 | CCOC(=O)c1cc2c(nc1N)-c1ncccc1CC2 | 52.7 µM (inactive) | 43.5 µM (inactive) | 37.2 µM (inactive) | 50.7 µM (inactive) | 89.5 µM (inactive) | > 100 µM (inactive) | – | > 100 µM (inactive) | > 100 µM (inactive)
9 | O=C(c1ccc(F)cc1)c1cccc(C(=O)c2ccc(F)cc2)n1 | > 100 µM (inactive) | 26.3 µM (inactive) | > 100 µM (inactive) | > 79.1 µM (inactive) | > 72.3 µM (inactive) | – | 20.9 µM (inactive) | 53.2 µM (inactive) | 17.7 µM (inactive)
10 | O=C(c1cc2ccccc2o1)N(Cc1ccccc1)c1ccccc1 | 22.8 µM (inactive) | 30.8 µM (inactive) | 17.3 µM (inactive) | 30.8 µM (inactive) | 21.7 µM (inactive) | 26.9 µM (inactive) | 23.3 µM (inactive) | 30.5 µM (inactive) | 63.1 µM (inactive)
11 | C/C=C1\C=C(OC)CN(CCc2c[nH]c3ccccc23)C1 | > 100 µM (inactive) | 49.7 µM (inactive) | 37.6 µM (inactive) | 9.4 µM (inactive) | 79.8 µM (inactive) | – | 32.9 µM (inactive) | > 10 µM (inactive) | –
12 | NC(=O)N/N=C(\Cc1nc2ccc(C(=O)c3ccccc3)cc2nc1O)C(=O)Nc1ccc(Br)cc1 | > 100 µM (inactive) | > 100 µM (inactive) | > 100 µM (inactive) | > 100 µM (inactive) | > 100 µM (inactive) | – | > 100 µM (inactive) | > 100 µM (inactive) | > 100 µM (inactive)
13 | O=C1C(Br)=CC2(C=C1Br)CCNC1=C2C2=NCCc3c[nH]c(c32)C1=O | 0.0182 µM (active) | 0.158 µM (active) | 0.084 µM (active) | – | 0.0275 µM (active) | – | 0.188 µM (active) | 1.98 µM (inactive) | 0.2 µM (active)
14 | COC(=O)CCC(=O)Nc1cc(C)ccc1C | > 100 µM (inactive) | > 100 µM (inactive) | – | > 100 µM (inactive) | > 100 µM (inactive) | > 100 µM (inactive) | > 100 µM (inactive) | > 100 µM (inactive) | > 100 µM (inactive)
15 | CCc1cccc(C)c1NC(=O)CCc1nnc(S)[nH]1 | > 100 µM (inactive) | – | > 100 µM (inactive) | > 100 µM (inactive) | > 100 µM (inactive) | – | > 100 µM (inactive) | > 100 µM (inactive) | > 100 µM (inactive)
16 | COc1cccc(NC(=S)Nn2c(C)nc3ccccc3c2=O)c1 | > 100 µM (inactive) | > 100 µM (inactive) | – | > 100 µM (inactive) | > 100 µM (inactive) | – | – | 83.6 µM (inactive) | –
17 | Cc1c(-c2coc(-c3ccccc3)n2)c(=O)n(-c2ccccc2)n1C | > 100 µM (inactive) | > 100 µM (inactive) | > 100 µM (inactive) | 58.1 µM (inactive) | 56.2 µM (inactive) | – | 23 µM (inactive) | – | > 100 µM (inactive)
18 | CC(C)c1cccc(C(C)C)c1NC(=O)C(=O)C(C(=O)c1ccccc1-c1ccccc1)C1OC(=O)c2ccccc21 (configuration not stated) | – | 22.9 µM (inactive) | 21.5 µM (inactive) | 17.7 µM (inactive) | 17.1 µM (inactive) | – | 13.3 µM (inactive) | – | 21.9 µM (inactive)
19 | CC(=O)CCCCCCCCCCCC[C@@H]1CC[C@H](C)[C@H](O)N1 | > 100 µM (inactive) | > 100 µM (inactive) | 65.2 µM (inactive) | > 100 µM (inactive) | 95.5 µM (inactive) | – | > 100 µM (inactive) | > 100 µM (inactive) | > 100 µM (inactive)
20 | CCCCNC1=C(C(=O)OCC)/C(=N/NC(=O)c2ccccc2O)CO1 | 18.2 µM (inactive) | – | > 100 µM (inactive) | 38 µM (inactive) | > 100 µM (inactive) | – | > 100 µM (inactive) | 62.2 µM (inactive) | 6.93 µM (inactive)
21 | O=C(O)c1c[nH]cc1C(=O)O | > 100 µM (inactive) | > 100 µM (inactive) | > 100 µM (inactive) | > 100 µM (inactive) | > 100 µM (inactive) | – | > 100 µM (inactive) | – | > 100 µM (inactive)
22 | CCOC1CC2OC(=O)C1C=C2C(=O)OC (configuration not stated) | 23 µM (inactive) | – | 55.6 µM (inactive) | 15.5 µM (inactive) | 37.2 µM (inactive) | – | 23.6 µM (inactive) | 21.1 µM (inactive) | 37.2 µM (inactive)
23 | CN1CCCNCCN(CCc2ccccn2)CCCN(C)CC1 | > 88.1 µM (inactive) | 27.8 µM (inactive) | > 100 µM (inactive) | > 75.3 µM (inactive) | > 59.4 µM (inactive) | > 100 µM (inactive) | > 100 µM (inactive) | > 100 µM (inactive) | > 100 µM (inactive)
24 | CCN(CC)C(=O)C(C)n1cc(C)c(=O)[nH]c1=O (configuration not stated) | – | > 100 µM (inactive) | > 100 µM (inactive) | > 100 µM (inactive) | > 100 µM (inactive) | – | > 100 µM (inactive) | – | > 100 µM (inactive)
26 | CC1CC(=O)CC[C@@H]1OCc1ccccc1 (some centres not stated) | > 100 µM (inactive) | > 100 µM (inactive) | > 100 µM (inactive) | – | > 100 µM (inactive) | – | > 100 µM (inactive) | > 100 µM (inactive) | > 100 µM (inactive)
27 | Cc1cc2c(=O)n(-c3ccc(F)cc3)c(C)nc2c(C(=O)O)c1C | > 100 µM (inactive) | > 100 µM (inactive) | > 100 µM (inactive) | > 100 µM (inactive) | > 100 µM (inactive) | – | – | > 100 µM (inactive) | > 100 µM (inactive)
28 | COC(=O)C[C@](O)(CCCC(C)(C)O)C(=O)O[C@@H]1C(OC)=C[C@]23CCCN2CCc2cc4c(cc2[C@H]13)OCO4 [OMACETAXINE MEPESUCCINATE] | 0.0231 µM (active) | 0.00679 µM (active) | 0.0192 µM (active) | – | 0.0194 µM (active) | – | 0.00914 µM (active) | 0.06 µM (active) | 0.0682 µM (active)
29 | OC[C@H]1O[C@@H](n2cnc3c(S)ncnc32)[C@H](O)[C@@H]1O [THIOINOSINE] | – | 971 µM (inactive) | > 2500 µM (inactive) | – | > 2500 µM (inactive) | – | > 1260 µM (inactive) | 2070 µM (inactive) | > 2500 µM (inactive)
